Assay results published in US8202998B2, “Salts of benzimidazolyl pyridyl ethers and formulations thereof” (Novartis AG, priority 2006, dated 2012).

Legend:
[1] = Stability: degradation products (DP) and appearance (color) under stress conditions; assay type: physicochemical; set-up: key to CL: A: No change of color; B: Slight discoloration; C: Medium discoloration; D: Strong discoloration; ↓: Suspension; *: Clear solution after stress test; —: no change; x: test not performed
Experimental: Column: Symmetry C18 (Waters), 3.5 μm, 3×150 mm
Mobile phase: A=0.1% TFA in water; B=acetonitrile
Gradient: 20 to 100% B in 10 minutes
Column temperature: 40° C.
Stability of the three salts with respect to color and degradation products were assessed under various conditions.

[2] = Determination of solubility at 25° C.; assay type: physicochemical; conditions: for solubility: thermodynamic from solid; for Solid: line after Water under Solubility; for Aqueous solubility (in words): summary of Table 8
Experimental: Excess solids were equilibrated in each solvent for over 24 hours at 25° C.±0.1. Concentration in aqueous supernatant was measured by UV and HPLC and concentrations in organic solvents by gravimetry.

[3] = Intrinsic dissolution rate; assay type: physicochemical; conditions: 37° C.
Experimental: The intrinsic dissolution rate measurements were carried out in 0.5 cm^2 VanKel die assemblies and a pellet pressure of 1 ton. The dissolution was measured using a Cary 50 spectrophotometer with a stirring rate of 200 rpm. The solution medium was held at 37° C. and measurements were made at 276 nm.

[4] = Hygroscopicity (sorption/desorption); assay type: physicochemical; conditions: for Hygroscopicity: After 1 day at 80% r.h. / Hygroscopicity: After 1 day at 95% r.h.: 25° C.
Experimental: Sorption/desorption isotherms were measured using VTI vapor sorption device (DVS-1). Measurements were carried out at 25° C.

[5] = Polymorphism behavior: crystal modification after 24 hours equilibration; assay type: physicochemical
Experimental: A suspension of 6 mg of drug substance in 300 μl of solvent is prepared. Samples are agitated for ≧24 hour at 22° C.±2° C. The solids are collected and investigated for changes.

[6] = pH of 1% solution or suspension; assay type: physicochemical; conditions: In water
[7] = Thermogravimetry / loss on drying; assay type: physicochemical; conditions: for Loss on drying by TG: As is; for Thermogravimetry (weight loss in %): Heating rate 20 K/min
[8] = Effect of grinding on morphic properties; assay type: physicochemical
[9] = Aqueous solubility of salts in deionized water; conditions: for solubility / solubility at 48 h: deionized water, water, thermodynamic from solid; for pH: pH of the saturated aqueous solutions
[10] = Bioavailability study of API and salts of API in dogs; assay type: in vivo, beagle dogs; conditions: single 100 mg oral dose; for AUC(0-inf) / Cmax / half-life / Tmax: beagle, dog, plasma; for AUC(0-inf) / Cmax / half-life / Tmax / Tlag: fasting; for AUC(0-inf) / Cmax / half-life: mean and sd; for Tmax / Tlag: median; for Absolute F: relative to an iv dose of 1.25 mg/kg
Experimental: For comparison, a microemulsion of the free base was also studied. The study was performed with 4 dogs, weighing 9-15 kg each. A crossover design with a washout period of at least 1 week was used. The dogs were given a single oral dose of 100 mg of test compound, administered under fasting conditions.

[11] = 0.1% solutions or suspensions, 1 week 80° C. or 50° C., Methanol
[12] = 0.1% solutions or suspensions, 1 week 80° C. or 50° C., Water
[13] = 1-2 weeks 50° C., tight container, 1% in mixture 1
[14] = 1-2 weeks 50° C., tight container, 1% in mixture 2
[15] = 1-2 weeks 50° C./75% r.h., 1% in mixture 1
[16] = 1-2 weeks 50° C./75% r.h., 1% in mixture 2
[17] = Solid stage, 1 week 80° C., tight container, Bulk (HPLC)
[18] = Solid state, 1 week 80° C./175% r.h, Bulk (HPLC)
[19] = Solid state, 1 week 80° C./, Bulk (HPLC)
[20] = Xenon light (approx. 1200 kLuxh), Bulk (HPLC)
[21] = 0.1N HCl, 25 °C, simulated gastric fluid, read-out: Solubility (approx. at 25° C.) (HPLC)
[22] = acetonitrile, 25 °C, organic solvent or mixture, read-out: Solubility (approx. at 25° C.)
[23] = aqueous medium at pH 3, 25 °C, pH 3, aqueous buffer, read-out: Solubility (approx. at 25° C.) (HPLC)
[24] = aqueous medium at pH 4.5, 25 °C, pH 4.5, aqueous buffer, read-out: Solubility (approx. at 25° C.) (HPLC)
[25] = methanol, 25 °C, organic solvent or mixture, read-out: Solubility (approx. at 25° C.)
[26] = water, 25 °C, water, read-out: Solubility (approx. at 25° C.) (HPLC)

CCS(=O)(=O)O.Cn1c(Nc2ccc(C(F)(F)F)cc2)nc2cc(Oc3ccnc(-c4ncc(C(F)(F)F)[nH]4)c3)ccc21 [Esylate, {1-methyl-5-[2-(5-trifluoromethyl-1H-imidazol-2-yl)-pyridin-4-yloxy]-1H-benzoimidazol-2-yl}-(4-trifluoromethyl-phenyl)amine ethanesulfonate]
CL [1, 11]: A | DP [1, 11]: 2.5% | DP ([1]; 0.1% solutions or suspensions, 1 week 80° C. or 50° C., Methanol, listed as esylate): 2.7% | CL [1, 12]: A↓ | DP [1, 12]: 0.4% | CL [1, 13]: A | DP [1, 13]: 0.5% | CL [1, 14]: A | DP [1, 14]: 0.6% | CL [1, 15]: A | DP [1, 15]: 1.8% | CL [1, 16]: A | DP [1, 16]: 0.8% | CL [1, 17]: A | DP [1, 17]: 0.5% | DP [1, 18]: 0.6% | CL [1, 19]: A | DP ([1]; Unstressed): 0.5% | CL [1, 20]: A | DP [1, 20]: 0.7% | solubility [2, 21]: 3700 µg/mL | solubility [2, 22]: 2100 µg/mL | solubility [2, 23]: 2.3 µg/mL | solubility [2, 24]: 3.7 µg/mL | Solid [2]: No change | solubility [2, 25]: > 50000 µg/mL | Measured pH ([2]; solubility sample in 0.1N HCl): 1.4 | Aqueous solubility (in words) [2]: significantly improves aqueous solubility at all pH levels | solubility [2, 26]: 60 µg/mL | Intrinsic dissolution rate ([3]; HCl 0.1N): 0.06 mg min^−1 cm^−2 | Intrinsic dissolution rate ([3]; Water): 0.0036 mg min^−1 cm^−2 | Hygroscopicity from moisture sorption profiles (in words) [4]: hygroscopic | Hygroscopicity: After 1 day at 80% r.h. [4]: 5.3 | Hygroscopicity: After 1 day at 95% r.h. [4]: 14.9 | Crystal modification after 24 hours equilibration (DSC/XRPD/TG) ([5]; 2-propanol): No change | Crystal modification after 24 hours equilibration (DSC/XRPD/TG) ([5]; Acetone): No change | Crystal modification after 24 hours equilibration (DSC/XRPD/TG) ([5]; Acetonitrile): No change | Crystal modification after 24 hours equilibration (DSC/XRPD/TG) ([5]; Ethanol): No change | Crystal modification after 24 hours equilibration (DSC/XRPD/TG) ([5]; Ethyl acetate): No change | Crystal modification after 24 hours equilibration (DSC/XRPD/TG) ([5]; Methanol): No change | Crystal modification after 24 hours equilibration (DSC/XRPD/TG) ([5]; PEG400): No change | Crystal modification after 24 hours equilibration (DSC/XRPD/TG) ([5]; Water): No change | pH of 1% solution or suspension [6]: 2.2 | Loss on drying by TG [7]: 2.1% | Thermogravimetry (weight loss in %) [7]: 2.1% | Effect of grinding [8]: No change

Cl.Cn1c(Nc2ccc(C(F)(F)F)cc2)nc2cc(Oc3ccnc(-c4ncc(C(F)(F)F)[nH]4)c3)ccc21 [Hydrochloride, {1-methyl-5-[2-(5-trifluoromethyl-1H-imidazol-2-yl)-pyridin-4-yloxy]-1H-benzoimidazol-2-yl}-(4-trifluoromethyl-phenyl)amine hydrochloride]
solubility [9]: 10 µg/mL | solubility at 48 h [9]: 457 µg/mL | pH [9]: 2.079

Cn1c(Nc2ccc(C(F)(F)F)cc2)nc2cc(Oc3ccnc(-c4ncc(C(F)(F)F)[nH]4)c3)ccc21.O=C(O)/C=C\C(=O)O [Maleate, {1-methyl-5-[2-(5-trifluoromethyl-1H-imidazol-2-yl)-pyridin-4-yloxy]-1H-benzoimidazol-2-yl}-(4-trifluoromethyl-phenyl)amine maleate]
CL [1, 11]: A | DP [1, 11]: 0.4% | CL [1, 12]: A↓ | DP [1, 12]: 0.3% | CL [1, 13]: A | DP [1, 13]: 0.4% | CL [1, 14]: A | DP [1, 14]: 0.4% | CL [1, 15]: A | DP [1, 15]: 1.1% | CL [1, 16]: A | DP [1, 16]: 0.5% | Stability in methanol (in words) ([1]; In methanol): stable | CL [1, 17]: A | DP [1, 17]: 0.7% | DP [1, 18]: 0.4% | CL [1, 19]: A | DP ([1]; Unstressed): 0.3% | CL [1, 20]: A | DP [1, 20]: 0.3% | solubility [2, 21]: 2300 µg/mL | solubility [2, 22]: 4700 µg/mL | solubility [2, 23]: 0.15 µg/mL | solubility [2, 24]: 0.03 µg/mL | Solid [2]: No change | solubility [2, 25]: > 50000 µg/mL | Measured pH ([2]; solubility sample at pH 3): 3.4 | Measured pH ([2]; solubility sample in 0.1N HCl): 1.4 | Aqueous solubility (in words) [2]: higher at low pH and lower in neutral conditions | solubility [2, 26]: 10 µg/mL | Intrinsic dissolution rate ([3]; HCl 0.1N): 0.03 mg min^−1 cm^−2 | Intrinsic dissolution rate ([3]; Water): 0.0076 mg min^−1 cm^−2 | Hygroscopicity from moisture sorption profiles (in words) [4]: slightly hygroscopic | Hygroscopicity: After 1 day at 80% r.h. [4]: 0.8 | Hygroscopicity: After 1 day at 95% r.h. [4]: 1.1 | Crystal modification after 24 hours equilibration (DSC/XRPD/TG) ([5]; 2-propanol): No change | Crystal modification after 24 hours equilibration (DSC/XRPD/TG) ([5]; Acetone): Change | Crystal modification after 24 hours equilibration (DSC/XRPD/TG) ([5]; Acetonitrile): Change | Crystal modification after 24 hours equilibration (DSC/XRPD/TG) ([5]; Ethanol): No change | Crystal modification after 24 hours equilibration (DSC/XRPD/TG) ([5]; Ethyl acetate): Change | Crystal modification after 24 hours equilibration (DSC/XRPD/TG) ([5]; Methanol): Change | Crystal modification after 24 hours equilibration (DSC/XRPD/TG) ([5]; PEG400): Change | Crystal modification after 24 hours equilibration (DSC/XRPD/TG) ([5]; Water): No change | AUC(0-inf) [10]: 29600 ± 5920 ng·h/mL | Cmax [10]: 1220 ± 320 ng/mL | half-life [10]: 1130 ± 462 min | Tmax [10]: 4 h | Tlag [10]: 0.12 h | Absolute F [10]: 12.9 ± 2.6 | pH of 1% solution or suspension [6]: 2.7 | Loss on drying by TG ([7]; listed as maleate, maleate): 0.1% | Loss on drying by TG ([7]; maleate): 0.11% | Thermogravimetry (weight loss in %) [7]: 0.11% | Effect of grinding [8]: No change | solubility [9]: 17 µg/mL | solubility at 48 h [9]: 96 µg/mL | pH [9]: 2.415

CS(=O)(=O)O.Cn1c(Nc2ccc(C(F)(F)F)cc2)nc2cc(Oc3ccnc(-c4ncc(C(F)(F)F)[nH]4)c3)ccc21 [Mesylate, {1-methyl-5-[2-(5-trifluoromethyl-1H-imidazol-2-yl)-pyridin-4-yloxy]-1H-benzoimidazol-2-yl}-(4-trifluoromethyl-phenyl)amine methanesulfonate]
CL [1, 11]: A | DP [1, 11]: 2.7% | CL [1, 12]: A↓ | DP [1, 12]: 0.5% | CL [1, 13]: A | DP [1, 13]: 0.5% | CL [1, 14]: A | DP [1, 14]: 0.6% | CL [1, 15]: A | DP [1, 15]: 2% | CL [1, 16]: A | DP [1, 16]: 1.2% | CL [1, 17]: A | DP [1, 17]: 0.5% | DP [1, 18]: 0.8% | CL [1, 19]: A | DP ([1]; Unstressed): 0.5% | CL [1, 20]: A | DP [1, 20]: 0.6% | solubility [2, 21]: 5700 µg/mL | solubility [2, 22]: 4000 µg/mL | solubility [2, 23]: 0.5 µg/mL | solubility [2, 24]: 0.1 µg/mL | Solid [2]: No change | solubility [2, 25]: > 50000 µg/mL | Measured pH ([2]; solubility sample at pH 3): 3.6 | Measured pH ([2]; solubility sample in 0.1N HCl): 1.3 | Aqueous solubility (in words) [2]: significantly improves aqueous solubility at all pH levels | solubility [2, 26]: 70 µg/mL | Intrinsic dissolution rate ([3]; HCl 0.1N): 0.056 mg min^−1 cm^−2 | Intrinsic dissolution rate ([3]; Water): 0.0024 mg min^−1 cm^−2 | Hygroscopicity from moisture sorption profiles (in words) [4]: hygroscopic | Hygroscopicity: After 1 day at 80% r.h. [4]: 4.0 | Hygroscopicity: After 1 day at 95% r.h. [4]: 13.0 | Crystal modification after 24 hours equilibration (DSC/XRPD/TG) ([5]; 2-propanol): No change | Crystal modification after 24 hours equilibration (DSC/XRPD/TG) ([5]; Acetone): No change | Crystal modification after 24 hours equilibration (DSC/XRPD/TG) ([5]; Acetonitrile): No change | Crystal modification after 24 hours equilibration (DSC/XRPD/TG) ([5]; Ethanol): No change | Crystal modification after 24 hours equilibration (DSC/XRPD/TG) ([5]; Ethyl acetate): No change | Crystal modification after 24 hours equilibration (DSC/XRPD/TG) ([5]; Methanol): No change | Crystal modification after 24 hours equilibration (DSC/XRPD/TG) ([5]; PEG400): No change | Crystal modification after 24 hours equilibration (DSC/XRPD/TG) ([5]; Water): Change | AUC(0-inf) [10]: 54400 ± 14200 ng·h/mL | Cmax [10]: 1570 ± 530 ng/mL | half-life [10]: 1280 ± 780 min | Tmax [10]: 5 h | Tlag [10]: 0.13 h | Absolute F [10]: 23.7 ± 6.2 | pH of 1% solution or suspension [6]: 2.0 | Loss on drying by TG [7]: 1.3% | Thermogravimetry (weight loss in %) [7]: 1.3% | Effect of grinding [8]: No change | solubility [9]: 4 µg/mL | solubility at 48 h [9]: 774 µg/mL | pH [9]: 1.992
